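Growth conditions: 96-well plates. Treatment: test compound, 48 hours, 5 concentrations. Analysis: linear interpolation between bracketing concentrations; unreached endpoints set to highest concentration. GI50: concentration for 50% inhibition of growth.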 Calls of active or inactive are those of the source. Rule as the data show it: active = GI50 up to about 1.1 µM and inactive = higher.
Experiments:
Experiment in all cases: NCI-60 cell line screen, 48 h
786-0 = tested on: 786-0
ACHN = tested on: ACHN
DU-145 = tested on: DU-145
HCT-116 = tested on: HCT-116
HOP-92 = tested on: HOP-92
Hs-578T = tested on: Hs-578T
K562 = tested on: K562
LOX IMVI = tested on: LOX IMVI
M14 = tested on: M14
MCF7 = tested on: MCF7
MOLT-4 = tested on: MOLT-4
OVCAR-3 = tested on: OVCAR-3
OVCAR-5 = tested on: OVCAR-5
PC-3 = tested on: PC-3
SF-268 = tested on: SF-268
SF-295 = tested on: SF-295
SNB-19 = tested on: SNB-19
CCRF-CEM = tested on: CCRF-CEM
SNB-75 = tested on: SNB-75
HCC 2998 = tested on: HCC 2998

Measured: GI50

O=C(CCN1CCOCC1)Nc1ccc(F)cc1F
inactive: 786-0 > 100 µM | ACHN > 100 µM | DU-145 > 100 µM | HCT-116 > 100 µM | HOP-92 > 100 µM | Hs-578T > 100 µM | K562 > 100 µM | LOX IMVI > 100 µM | M14 > 100 µM | MCF7 > 100 µM | MOLT-4 > 100 µM | OVCAR-3 > 100 µM | OVCAR-5 > 100 µM | PC-3 > 100 µM | SF-268 > 100 µM | SF-295 > 100 µM | SNB-19 > 100 µM

O=S(=O)(O)c1ccc2c(/N=N/c3cccc4ccccc34)c(O)ccc2c1
inactive: 786-0 > 100 µM | ACHN > 100 µM | CCRF-CEM > 100 µM | DU-145 > 100 µM | HCT-116 > 100 µM | HOP-92 > 100 µM | Hs-578T > 100 µM | K562 > 100 µM | LOX IMVI > 100 µM | M14 > 100 µM | MOLT-4 > 100 µM | OVCAR-3 > 100 µM | OVCAR-5 > 100 µM | PC-3 > 100 µM | SF-268 > 100 µM | SF-295 39.1 µM | SNB-19 74.6 µM | SNB-75 > 100 µM

COC1CC(OC(=O)c2ccccc2)C(OC(=O)c2ccccc2)C(C)O1 (configuration not stated)
inactive: 786-0 > 100 µM | ACHN > 100 µM | CCRF-CEM > 100 µM | DU-145 > 100 µM | HCC 2998 > 100 µM | HCT-116 > 100 µM | HOP-92 19.3 µM | Hs-578T 59.8 µM | K562 > 100 µM | LOX IMVI > 100 µM | M14 > 100 µM | MCF7 > 100 µM | MOLT-4 > 100 µM | OVCAR-3 > 100 µM | OVCAR-5 > 100 µM | PC-3 > 100 µM | SF-268 > 100 µM | SF-295 > 100 µM | SNB-19 > 100 µM

CC(C)=CCC/C(C)=C/CO [GERANIOL]
inactive: 786-0 > 100 µM | ACHN > 100 µM | CCRF-CEM > 100 µM | DU-145 > 100 µM | HCC 2998 > 100 µM | HCT-116 > 100 µM | Hs-578T > 100 µM | K562 > 100 µM | LOX IMVI > 100 µM | M14 > 100 µM | MCF7 > 100 µM | MOLT-4 > 100 µM | OVCAR-3 > 100 µM | OVCAR-5 > 100 µM | PC-3 > 100 µM | SF-268 > 100 µM | SF-295 > 100 µM | SNB-19 > 100 µM

NC(=S)c1cccc(C2Nc3ccccc3O2)c1 (configuration not stated)
inactive: 786-0 > 100 µM | ACHN 40.2 µM | DU-145 > 100 µM | HCT-116 > 100 µM | HOP-92 > 100 µM | Hs-578T > 100 µM | K562 30.5 µM | M14 > 100 µM | MCF7 56.9 µM | MOLT-4 41.7 µM | OVCAR-3 > 100 µM | OVCAR-5 > 100 µM | PC-3 51.2 µM | SF-268 > 100 µM | SF-295 68.9 µM | SNB-19 > 100 µM | SNB-75 > 100 µM

COc1ccc(C2=NNC(=O)c3ccccc3N2c2nc(-c3cccs3)nc3ccc(Br)cc23)cc1
inactive: 786-0 25.8 µM | ACHN 61.2 µM | CCRF-CEM 5.25 µM | DU-145 39.9 µM | HCT-116 69.5 µM | HOP-92 > 100 µM | Hs-578T 35.1 µM | K562 99.5 µM | LOX IMVI 27.1 µM | M14 37.4 µM | MCF7 68.1 µM | MOLT-4 65.8 µM | OVCAR-3 23 µM | OVCAR-5 61.4 µM | PC-3 24.7 µM | SF-268 31 µM | SF-295 20.6 µM | SNB-19 30.1 µM | SNB-75 41.4 µM

COc1ccc(/C=C(/C#N)C(N)=O)cc1OC
inactive: 786-0 > 100 µM | ACHN > 100 µM | CCRF-CEM 42.1 µM | DU-145 > 100 µM | HCT-116 > 100 µM | HOP-92 > 100 µM | Hs-578T > 100 µM | K562 > 100 µM | LOX IMVI > 100 µM | M14 > 100 µM | MCF7 > 100 µM | MOLT-4 > 100 µM | OVCAR-3 > 100 µM | OVCAR-5 > 100 µM | PC-3 > 100 µM | SF-268 > 100 µM | SF-295 > 100 µM | SNB-19 > 100 µM | SNB-75 > 100 µM

CCCCC/N=C/c1c(O)c(O)c(C(C)C)c2cc(C)c(-c3c(C)cc4c(C(C)C)c(O)c(O)c(/C=N/CCCCC)c4c3O)c(O)c12
inactive: 786-0 11.8 µM | ACHN 3.59 µM | CCRF-CEM 25.2 µM | DU-145 19.5 µM | HCC 2998 10.7 µM | HCT-116 11 µM | HOP-92 3.73 µM | Hs-578T 17.2 µM | K562 4.25 µM | LOX IMVI 3.52 µM | M14 38.1 µM | MCF7 4.81 µM | OVCAR-3 5.28 µM | OVCAR-5 19 µM | PC-3 5.35 µM | SF-268 6.5 µM | SNB-19 3.78 µM

Brc1cccc(/N=N/N2CCCC2)c1
inactive: 786-0 > 100 µM | ACHN > 100 µM | CCRF-CEM 49.2 µM | DU-145 > 100 µM | HCT-116 92.3 µM | HOP-92 63.1 µM | Hs-578T > 100 µM | K562 48.9 µM | LOX IMVI 77.1 µM | M14 > 100 µM | MCF7 > 100 µM | MOLT-4 71.8 µM | OVCAR-3 > 100 µM | OVCAR-5 > 100 µM | PC-3 71.3 µM | SF-268 > 100 µM | SF-295 97.5 µM | SNB-19 > 100 µM | SNB-75 65.5 µM

O=P1(Oc2ccccc2)N=P(c2ccccc2)(c2ccccc2)C=C(c2ccc(Cl)cc2)N1 (configuration not stated)
inactive: 786-0 13.4 µM | ACHN 13 µM | CCRF-CEM 9.38 µM | DU-145 13.9 µM | HCT-116 7.23 µM | HOP-92 9.18 µM | Hs-578T 16.7 µM | K562 5.43 µM | M14 7.67 µM | MCF7 2.45 µM | MOLT-4 5.18 µM | OVCAR-3 4.51 µM | OVCAR-5 13.1 µM | PC-3 6.58 µM | SF-268 11.6 µM | SF-295 6.92 µM | SNB-19 15.3 µM

Nc1nc2c(C(=O)NCc3cccs3)nnn2c2cccc(Cl)c12
inactive: 786-0 > 100 µM | ACHN > 100 µM | CCRF-CEM 22.3 µM | DU-145 > 100 µM | HCC 2998 30.5 µM | HCT-116 > 100 µM | HOP-92 79.3 µM | Hs-578T > 100 µM | K562 > 100 µM | LOX IMVI > 100 µM | M14 > 100 µM | MCF7 53.8 µM | MOLT-4 89.5 µM | OVCAR-3 > 100 µM | OVCAR-5 45.3 µM | PC-3 54.5 µM | SF-268 > 100 µM | SF-295 > 100 µM | SNB-19 > 100 µM

CC(=O)Oc1cc(S(=O)(=O)Nc2n[nH]c(Nc3ccc(C)cc3)n2)c(S)cc1Cl
inactive: 786-0 > 100 µM | ACHN 54.8 µM | CCRF-CEM 94.8 µM | DU-145 > 100 µM | HCT-116 > 100 µM | HOP-92 > 100 µM | Hs-578T 79.3 µM | K562 68.1 µM | LOX IMVI > 100 µM | M14 > 100 µM | MOLT-4 83.2 µM | OVCAR-3 > 100 µM | OVCAR-5 > 100 µM | PC-3 > 100 µM | SF-295 > 100 µM | SNB-19 > 100 µM

CC12CCc3ccccc3C1=Nc1ccccc12 (configuration not stated)
inactive: 786-0 49.2 µM | ACHN 64.7 µM | CCRF-CEM 25.1 µM | DU-145 > 100 µM | HCT-116 32.7 µM | HOP-92 12.9 µM | Hs-578T 2.14 µM | K562 31 µM | LOX IMVI 40.8 µM | M14 32.3 µM | MCF7 48.6 µM | MOLT-4 30.4 µM | OVCAR-3 15.3 µM | OVCAR-5 > 100 µM | PC-3 14.3 µM | SF-268 98.2 µM | SF-295 44.4 µM | SNB-19 > 100 µM | SNB-75 > 100 µM

CC1=C[C@H]([C@H]2C=C(C)C(C(N)=O)=CN2Cc2c(Cl)cccc2Cl)N(Cc2c(Cl)cccc2Cl)C=C1C(N)=O
inactive: 786-0 > 75 µM | ACHN > 75 µM | CCRF-CEM 45.4 µM | DU-145 > 75 µM | HCC 2998 > 75 µM | HCT-116 > 75 µM | HOP-92 16 µM | Hs-578T > 75 µM | K562 > 75 µM | LOX IMVI > 75 µM | M14 > 75 µM | MCF7 > 75 µM | MOLT-4 > 75 µM | OVCAR-3 > 75 µM | OVCAR-5 > 75 µM | PC-3 > 75 µM | SF-268 > 75 µM | SF-295 > 75 µM | SNB-19 > 75 µM

N#Cc1ccc(Oc2nc3ccccc3nc2C(=O)O)cc1
inactive: 786-0 > 100 µM | ACHN > 100 µM | CCRF-CEM > 100 µM | DU-145 > 100 µM | HCC 2998 > 100 µM | HCT-116 > 100 µM | HOP-92 > 100 µM | Hs-578T > 100 µM | K562 > 100 µM | LOX IMVI > 100 µM | M14 > 100 µM | MOLT-4 > 100 µM | OVCAR-3 > 100 µM | OVCAR-5 > 100 µM | PC-3 > 100 µM | SF-268 > 100 µM | SF-295 > 100 µM | SNB-19 > 100 µM | SNB-75 > 100 µM

— ChEMBL document CHEMBL1201862, “PubChem BioAssay data set” (2004)
